Measurements reported in patent publication US6787541B1, “Thieno-and furopyrimidine derivatives as A2A-receptor antagonists” (Vernalis Research Limited, priority 1999, dated 2004).
Values belong to the molecule of their own block, whether it stands above or below them.

Experiments:
[1] = system: haloperidol-induced deficits in locomotor activity in mice; experiment: Haloperidol-induced hypolocomotion model; type: in vivo; settings: intraperitoneally at a dose of 10 mg/kg
From the text: Haloperidol-induced Hypolocomotion Model
This approach is also considered a valid method for screening drugs with potential antiparkinsonian effects. Thus, the ability of novel adenosine antagonists to block haloperidol-induced deficits in locomotor activity in mice can be used to assess both in vivo and potential antiparkinsonian efficacy.
Female TO mice (25-30 g) obtained from TUCK, UK, are used for all experiments. Animals are housed in groups of 8 [cage size—40 (width)×40 (length)×20 (height)cm] under 12 hr light/dark cycle (lights on 08:00 hr), in a temperature (20±2° C.) and humidity (55±15%) controlled environment. Animals have free access to food and water, and are allowed at least 7 days to acclimatize after delivery before experimental use.
Liquid injectable haloperidol (1 ml Serenance ampoules from Baker Norton, Harlow, Essex, each containing haloperidol BP 5 mg, batch # P424) are diluted to a final concentration of 0.02 mg/ml using saline. Test compounds are typically prepared as aqueous suspensions in 8% Tween. […]
1.5 hours before testing, mice are administered 0.2 mg/kg haloperidol, a dose that reduces baseline locomotor activity by at least 50%. […] Horizontal locomotor activity is determined by placing the cages within a frame containing a 3×6 array of photocells linked to a computer, which tabulates beam breaks. […]

[2] = biological target: T1, human adenosine A2A receptors expressed in HEK-293 cells (Homo sapiens, UniProt P29274); experiment: Binding affinities at hA2A receptors, displacement of [3H]-CGS 21680
T1 construct: expressed in transfected cells; host or cells: HEK-293 cells

cataleptic responses = settings: cited from earlier work
Parkinsonian patients = settings: cited from earlier work

T1 sequence (P29274 whole entry): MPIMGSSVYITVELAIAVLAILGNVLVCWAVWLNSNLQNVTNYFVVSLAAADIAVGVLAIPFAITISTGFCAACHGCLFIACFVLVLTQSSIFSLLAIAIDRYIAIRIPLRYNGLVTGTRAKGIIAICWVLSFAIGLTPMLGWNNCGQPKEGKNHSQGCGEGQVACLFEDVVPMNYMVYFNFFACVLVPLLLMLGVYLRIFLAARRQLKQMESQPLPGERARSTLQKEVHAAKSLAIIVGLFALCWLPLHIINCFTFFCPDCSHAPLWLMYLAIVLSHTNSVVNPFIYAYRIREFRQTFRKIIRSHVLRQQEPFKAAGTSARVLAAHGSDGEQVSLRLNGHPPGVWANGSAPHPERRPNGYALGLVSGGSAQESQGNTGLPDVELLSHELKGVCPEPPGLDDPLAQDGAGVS

SMILES: O=C(c1cccs1)c1nc(N2CCC(O)CC2)nc2ccsc12 [Example 86, 2-(4-Hydroxypiperidin-1-yl)thieno[3,2-d]pyrimidin-4-yl 2-thienylmethanone]
reversal of haloperidol-induced hypolocomotion [1]: significantly reversed

Ki [2]: 8 nM | melting point: 178.6 to 179.3 °C
SMILES: O=C(c1cccs1)c1nc(NCc2ccccn2)nc2ccsc12 [Example 95, 2-(2-Pyridylmethylamino)thieno[3,2-d]pyrimidin-4-yl 2-thienylmethanone]

Ki [2]: 7 nM | melting point: 194.5 to 195 °C
SMILES: Cc1ccsc1C(=O)c1nc(NCCO)nc2ccsc12 [Example 118, 2-(2-Hydroxyethylamino)thieno[3,2-d]pyrimidin-4-yl 3-methyl-2-thienylmethanone]

SMILES: CCCn1c(=O)c2c(nc(/C=C/c3ccc(OC)c(OC)c3)n2C)n(CCC)c1=O [KF 17837, (E)-8-(3,4-dimethoxystyryl)-1,3-dipropyl-7-methylxanthine]
anticataleptic effects of a subthreshold dose of L-DOPA plus benserazide (cataleptic responses; in vivo): potentiated | catalepsy induced by haloperidol and reserpine (cataleptic responses; in vivo): reduced | cataleptic responses induced by intracerebroventricular administration of CGS 21680 (cataleptic responses; oral administration): significantly ameliorated

SMILES: Cn1c(=O)c2[nH]cnc2n(C)c1=O [theophylline, 1,3-dimethylxanthine]
mean objective disability scores (Parkinsonian patients; 15 Parkinsonian patients, up to 12 weeks, 150 mg/day oral): significant improvements | patients reporting moderate or marked subjective improvement (Parkinsonian patients; of 15 Parkinsonian patients, up to 12 weeks, 150 mg/day oral): 11 | serum theophylline levels (Parkinsonian patients; slow release oral theophylline preparation 150 mg/day, after one week): 4.44 mg/L
